According to article PMC10447463, “Data-mining unveils structure–property–activity correlation of viral infectivity enhancing self-assembling peptides” (Nature Communications, 2023):
Read-outs that look alike come from different tables or passages of the source.

How the values were obtained:
[1] = system: HIV-1 infection of TZM-bl cells; test: HIV-1 infectivity enhancement assay, β-galactosidase luminescence; type: cell-based; details: for Rel-to EFC / n-fold to virus: Fig S8 panels B, D; for Log10 Inf. rel. to EF-C: log10 of HIV-1 infection of TZM-bl cells relative to EF-C, Fig S15 source data, asymmetric std dev errors
[2] = type: physicochemical
How it was run: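 Preformed peptide fibrils (1 mg/mL) mixed with 50 µM ThT in PBS, 15 min at RT, fluorescence ex 440/em 488 nm versus PBS blank, triplicates. Zeta potential: peptides at 1 mg/mL in PBS pH 7.4, aged 1 d at RT, diluted in 1 mM KCl, Smoluchowski from electrophoretic mobility.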

[3] = β-sheet content by ATR-FT-IR; type: physicochemical; details: ATR-FT-IR
How it was run: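 ATR FT-IR, diamond crystal, 64 scans, 2 cm^-1, on freeze-dried 1 mg/mL PNF; β-sheet per prior calculation. Fluorescamine CR: 3 kDa filter, DMSO redissolution, 20 min RT, ex 365/em 470 nm; values as n-fold enhancement over DMSO (set to 1).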

[4] = type: physicochemical; details: STD prep
[5] = Feb2021, Log10 of infectivity relative to EF-C
[6] = Feb2021, infectivity enhancement relative to EF-C
[7] = infectivity enhancement relative to EF-C
[8] = infectivity n-fold relative to virus alone
[9] = infectivity class (low / medium / high) of each library peptide, main list in c1-c6, same classes repeated in sub-lists of sequences containing the hydrophobicity/charge patterns P+,H0,P+,H0,P0,H0,P0, P+,H0,P0,H0,P0,H0,P0, P+,H0,P0,H0
[10] = infectivity class (low / medium / high) of the peptide in the sequence-pattern analysis, Fig. S22-A4, class limits not given
[11] = ThT fluorescence relative to blank (42.1851851851852 a.u.)
[12] = Feb2021, 1.3 µM value relative to virus only (0 µM)
[13] = Feb2021, log10 of infectivity relative to EF-C
[14] = Feb2021, n-fold infectivity relative to EF-C
[15] = Feb2021, unrounded values of the 1.3 µM column
[16] = infectivity enhancement relative to EF-C (=1), Feb2021 run
[17] = infectivity n-fold relative to virus only, Feb2021 run
[18] = log10 of infectivity relative to EF-C, Feb2021 run
[19] = relative to blank 42.1851851851852 a.u.
[20] = Feb2021, figures match the 1.3 µM column
[21] = Feb2021, infectivity relative to virus only
[22] = Feb2021, n-fold enhancement relative to EF-C
[23] = ThT fluorescence relative to blank, blank = 42.1851851851852
[24] = Feb2021 run, infectivity n-fold relative to virus alone
[25] = Feb2021 run, log10 of infectivity relative to EF-C
[26] = Feb2021 run, n-fold infectivity relative to EF-C

Substance | Log10 of Rel to EFC (Feb2021) [1, 5] | infectivity [1, 9] | infectivity [1, 10] | Log10 Inf. rel. to EF-C [1] | Tht rel to blank (42.1851851851852) [2, 11] | n-fold to virus (Feb2021) [1, 12] | Rel-to EFC (Feb-2021) [1, 14] | Absolute Infectivity / RLU /s (Feb2021) [1, 15] [RLU /s] | TEM: 1= fibrils, 0= aggregates (micelle), 0.5 = aggregates and fibrils, -1 = nothing obersved, STD prep [4] | Tht category (> 1.5 to blank = +) ([2]; category 1/0) | Tht rel to blank (42.1851851851852) [2, 19] | Rel-to EFC (Feb-2021) [1, 22] | n-fold to virus (Feb2021) [1, 24] | Log10 of Rel to EFC (Feb2021) [1, 25] | Rel-to EFC (Feb-2021) [1, 26] | further results
CKFKFQFW [TM72] | -0.05512 | high | high | -0.05512 | 1.802 | – | – | – | – | – | – | – | – | – | – | Rel-to EFC (Feb-2021) [1, 6]: 0.8808; Rel-to EFC [1, 7]: 0.8808; n-fold to virus [1, 8]: 37.01; FTIR ß-sheet content/ % [3]: 43%
KIKIKIKIYYYY [JR7] | 0.1402 | – | high | 0.1402 | 1.259 | – | – | – | – | – | – | – | – | – | – | Rel-to EFC (Feb-2021) [1, 6]: 1.381; FTIR ß-sheet content/ % [3]: 0%
CEIEIQI [AR2/ TM142] | – | low | – | -1.554 | 2.23 | 1.173 | 0.02791 | 633.3 | 1 | 1 (ThT. Cat is 1, if Rel. ThT >2) | 2.23 | – | – | – | – | Log10 of Rel to EFC (Feb2021) [1, 13]: -1.554; Rel-to EFC (Feb-2021) [1, 16]: 0.02791; n-fold to virus (Feb2021) [1, 17]: 1.173; Log10 of Rel to EFC (Feb2021) [1, 18]: -1.554
KFKQFFNMWQ [JG5] | -1.049 | low | – | -1.0494 | 1.589 | – | 0.08925 | – | 0 | 0 (ThT-inactive (N-Fold <2)) | – | 0.08925 | – | – | – | Absolute Infectivity / RLU /s (Feb2021) [1, 20]: 1000 RLU /s; n-fold to virus (Feb2021) [1, 21]: 3.75; Tht rel to blank (42.1851851851852) [2, 23]: 1.589
QCKAKAQANMWQ [CK22] | -1.144 | low | – | -1.144 | 1.496 | 3.018 | 0.07183 | 2767 | 0.5 | 0 (ThT-inactive (N-Fold <2)) | 1.496 | 0.07183 | 3.018 | -1.144 | 0.07183 | –
QCKAKAQA [CK24] | -1.598 | low | – | -1.598 | 1.319 | 1.061 | 0.02526 | 806.7 | 0.5 | 0 (ThT-inactive (N-Fold <2)) | 1.319 | 0.02526 | 1.061 | -1.598 | 0.02526 | Rel-to EFC [1, 7]: 0.02526; n-fold to virus [1, 8]: 1.0614
RGDCKIKIQINM [TM45] | -0.6272 | medium | – | -0.6272 | 1.835 | – | – | – | 1 | 0 (ThT-inactive (N-Fold <2)) | 1.835 | 0.2359 | 9.913 | -0.6272 | 0.2359 | Tht category (> 1.5 to blank = +) ([2]; FigS26): 0 (Tht category (> 1.5 to blank = +))
RGDKIKIQI [MG14] | -1.805 | low | – | -1.805 | 5.578 | – | – | – | 1 | 1 (ThT. Cat is 1, if Rel. ThT >2) | 5.578 | 0.01566 | 0.6579 | -1.805 | 0.01566 | Tht category (> 1.5 to blank = +) ([2]; FigS26): 1 (Tht category (> 1.5 to blank = +))
CEIEIQINM [TM144] | – | – | low | -1.186 | 5.13 | 2.736 | 0.06512 | 3593 | 1 | 1 (ThT. Cat is 1, if Rel. ThT >2) | 5.13 | – | – | – | – | Log10 of Rel to EFC (Feb2021) [1, 13]: -1.186; Rel-to EFC (Feb-2021) [1, 16]: 0.06512; n-fold to virus (Feb2021) [1, 17]: 2.736; Log10 of Rel to EFC (Feb2021) [1, 18]: -1.186
CQFQFQF [QBL4] | – | medium | – | -0.4519 | – | 14.84 | 0.3533 | 7570 | 1 | 1 (ThT. Cat is 1, if Rel. ThT >2) | 13.03 | – | – | – | – | Log10 of Rel to EFC (Feb2021) [1, 13]: -0.4519; Rel-to EFC [1, 7]: 0.3533; n-fold to virus [1, 8]: 14.84
KFKFKFQF [TG18] | -0.09726 | – | high | -0.09726 | 41.89 | – | 0.7993 | – | 1 | 1 (ThT. Cat is 1, if Rel. ThT >2) | – | 0.7993 | – | – | – | Absolute Infectivity / RLU /s (Feb2021) [1, 20]: 18696.66667 RLU /s; n-fold to virus (Feb2021) [1, 21]: 33.59; Tht rel to blank (42.1851851851852) [2, 23]: 41.89
QCKIKIQI [CK3] | -0.9508 | medium | – | -0.9508 | 2.039 | 4.706 | 0.112 | 3577 | 1 | 1 (ThT. Cat is 1, if Rel. ThT >2) | 2.039 | 0.112 | 4.706 | -0.9508 | 0.112 | –
QCKIKQIINM [CK5] | -0.4555 | medium | – | -0.4555 | 23.32 | – | 0.3503 | – | 1 | 1 (ThT. Cat is 1, if Rel. ThT >2) | 23.32 | 0.3503 | 14.72 | -0.4555 | 0.3503 | Absolute Infectivity / RLU /s (Feb2021) [1, 20]: 11186.66667 RLU /s; n-fold to virus (Feb2021) [1, 21]: 14.72; Tht rel to blank (42.1851851851852) [2, 23]: 23.32
RGDKIKIQIC [MG7/CN1] | -0.07993 | – | high | -0.07993 | 19.76 | – | – | – | 1 | 1 (ThT. Cat is 1, if Rel. ThT >2) | 19.76 | 0.8319 | 34.95 | -0.07993 | 0.8319 | Tht category (> 1.5 to blank = +) ([2]; FigS26): 1 (Tht category (> 1.5 to blank = +))
KAKAKAQA [TG15] | -2.06 | low | low | -2.06 | 1.151 | – | 0.008711 | – | 0 | 0 (ThT-inactive (N-Fold <2)) | – | 0.008711 | – | – | – | Absolute Infectivity / RLU /s (Feb2021) [1, 20]: 186.7 RLU /s; n-fold to virus (Feb2021) [1, 21]: 0.366; Tht rel to blank (42.1851851851852) [2, 23]: 1.151
